This is an account of results in patent US8246966B2, “Trypanosome microsome system and uses thereof” (priority 2006, dated 2012).

The test system of assay [1] is T. brucei microsomes (TbRM). Briefly: Post-translational import of VSG-11786 into TbRM with inhibitors (Example 4). Type of assay: biochemical, Trypanosoma brucei. As for the experimental part:
FIGS. 7A to 7C. […] VSG-11786 mRNA was translated in rabbit reticulocyte lysate in the absence or presence of T. brucei cytosol for 1 hour at 37° C., and then cycloheximide was added to stop protein synthesis. TbRM (1 equivalent) and MAL3-101 (10 μM), MAL3-51 (10 μM), or an equal volume of DMSO was added to the samples on ice, and the mixture was incubated at 37° C. for 1.5 hours for translocation of VSG-11786 into the microsomes. Reaction mixtures were treated with proteinase K (PK) for one hour on ice. Proteolysis was terminated with PMSF. Proteins were precipitated with ammonium sulfate, pelleted by centrifugation, resuspended in SDS-PAGE sample buffer, and resolved by Tris-Tricine SDS-PAGE. Gel images were obtained with a phosphorimager and analyzed with Quantity-One software. Reaction mixtures for odd numbered lanes contained TbRM, but not proteinase K; even numbered lanes contained TbRM and proteinase K. Brackets denote lanes that were compared to obtain percentage of VSG-11786 import values. FIG. 7B is a graphical representation of data from FIG. 7A. […] In FIG. 7C, the effect of MAL3-101 on T. brucei growth.
FIGS. 8A to 8D. Effects of NFI028 and CAM741 on import of VSG-11786 into T. brucei microsomes. […] VSG-11786 mRNA was translated in rabbit reticulocyte lysate in the presence of T. brucei cytosol for one hour at 37° C., and then protein synthesis was stopped by the addition of cycloheximide. […] Reaction mixtures were treated with proteinase K (PK) on ice for one hour. Proteolysis was terminated with PMSF. Proteins were precipitated with ammonium sulfate, pelleted, resuspended in SDS-PAGE sample buffer, and resolved by Tris-Tricine SDS-PAGE. Images of radiolabeled proteins were obtained with a phosphorimager and quantitated with Quantity-One software. Samples depicted in odd numbered lanes contained TbRM, but were not treated proteinase K. Reaction mixtures shown in even numbered lanes contained TbRM and were treated with proteinase K. Brackets denote lanes that were compared to each other in order to obtain percentage of VSG-11786 import values. FIG. 8B is a graphical representation of data from FIG. 8A.
FIGS. 9A to 9D. Effects of azide, AEE788, and valinomycin on VSG-11786 import into T. brucei microsomes. […] VSG-11786 mRNA was translated in rabbit reticulocyte lysate in the presence of T. brucei cytosol for one hour at 37° C. Cycloheximide was added to stop proteins synthesis. TbRM (1 equivalent) and sodium azide (8 μM), AEE788 (8 μM), an equal volume of microsome buffer (RMB) or DMSO was added to the samples on ice, and the mixtures were incubated at 37 C for 1.5 hours. Reaction mixtures were treated with proteinase K (PK) on ice for one hour. Proteolysis was terminated with PMSF. Proteins were precipitated with ammonium sulfate, pelleted, resuspended in SDS-PAGE sample buffer, and resolved by Tris-Tricine SDS-PAGE. Images of radiolabeled proteins were obtained with a phosphorimager and quantitated with Quantity-One software. Brackets show lanes that were compared to each other in order to obtain percentage of VSG-11786 imported into TbRM. Lanes 1, 3, 5, & 7 were treated with TbRM, but not proteinase K. Lanes 2, 4, 6, & 8 were treated with TbRM and proteinase K. FIG. 9B is a graphical representation of data from FIG. 9A. […] Reaction mixtures depicted in odd lanes contained TbRM, but were not treated with proteinase K; even lanes contained TbRM and were treated with proteinase K. FIG. 9D is a graphical representation of data from panel FIG. 9C.

In assay [2] the test system is Bloodstream T. brucei CA427. Briefly: Bloodstream T. brucei cell culture drug susceptibility (Example 4). It is filed as cell-based, Trypanosoma brucei. The following applies: cultured bloodstream T. brucei; read-out: IG50, T. brucei growth. As for the experimental part: Cell Culture. Bloodstream T. brucei cell culture and drug susceptibility studies were performed as previously described. Bloodstream T. brucei CA427 were cultured in HMI-9 media (Hirumi and Hirumi, 1994, Parasitol Today; 10(2):80-4) to a density of 10^6 cells/ml. Cells were seeded (500 μl of 4×10^4 cells/ml) to a 24-well plate and exposed to MAL3-101, CAM741, and NFI028 at listed concentrations (see figure legends) or an equal volume of DMSO. Cells were incubated at 37° C. and counted after 24 and 48 hours, using a hemocytometer.

Assay [3] relates to bloodstream T. brucei. The settings on record: del Rayo Camacho et al., 2002; read-out: IC50 of drug used to treat human African trypanosomiasis; cited from earlier work.

As for CAM741, the “VSG-11786 import into TbRM” value in assay [1] (CAM741 1 μM, DMSO 74%) is on record as 73%. For the same compound, the IC50 in assay [2] turned out to be 2000 nM. With `N=C(N)c1ccc(OCCCCCOc2ccc(C(=N)N)cc2)cc1` [pentamidine], the IC50 in assay [3] was 0.3 nM. Consider `CCN1CCN(Cc2ccc(-c3cc4c(N[C@H](C)c5ccccc5)ncnc4[nH]3)cc2)CC1` [AEE788], for which the “inhibition of post-translational import of VSG-11786 into TbRM” value in assay [1] (AEE788 8 μM) is listed as “failed to inhibit”. Take `CC(C)[C@@H]1NC(=O)[C@H](C)OC(=O)[C@@H](C(C)C)NC(=O)[C@@H](C(C)C)OC(=O)[C@H](C(C)C)NC(=O)[C@H](C)OC(=O)[C@@H](C(C)C)NC(=O)[C@@H](C(C)C)OC(=O)[C@H](C(C)C)NC(=O)[C@H](C)OC(=O)[C@@H](C(C)C)NC(=O)[C@@H](C(C)C)OC1=O` [valinomycin]: the “efficiency of VSG-11786 import into TbRM” value in assay [1] (valinomycin 0.5 μM) was “not affected”. Take `Cc1ccc(C(=O)Nc2ccc(S(=O)(=O)O)c3cc(S(=O)(=O)O)cc(S(=O)(=O)O)c23)cc1NC(=O)c1cccc(NC(=O)Nc2cccc(C(=O)Nc3cc(C(=O)Nc4ccc(S(=O)(=O)O)c5cc(S(=O)(=O)O)cc(S(=O)(=O)O)c45)ccc3C)c2)c1` [suramin]: the IC50 in assay [3] is 1400 to 2300 nM.
